This note sets out measurements from patent US7767685B2, “Adenosine A2B receptor antagonists” (King Pharmaceuticals Research and Development, Inc., priority 2006, dated 2010).

The target in assay [1] is T1, human A2B adenosine receptors (Homo sapiens, UniProt P29275).
T1 construct: expressed in transfected cells; host or cells: CHO cells (whole cells)
T1 sequence (P29275 1-332): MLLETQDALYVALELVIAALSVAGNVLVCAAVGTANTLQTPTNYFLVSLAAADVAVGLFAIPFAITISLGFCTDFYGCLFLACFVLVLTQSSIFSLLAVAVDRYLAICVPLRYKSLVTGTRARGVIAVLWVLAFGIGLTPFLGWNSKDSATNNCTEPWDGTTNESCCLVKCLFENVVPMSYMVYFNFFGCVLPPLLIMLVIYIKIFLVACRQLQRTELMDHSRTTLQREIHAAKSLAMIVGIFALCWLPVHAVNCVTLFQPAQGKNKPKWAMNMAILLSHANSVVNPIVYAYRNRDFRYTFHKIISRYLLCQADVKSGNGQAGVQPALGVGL
In words: cAMP assay in CHO cells expressing human A2B adenosine receptors (antagonism of NECA-induced cAMP). Type of assay: cell-based. The note with it: antagonism of NECA (100 nM)-induced cAMP, geometric mean (95% confidence limits), read-out: IC50 hA2B (cAMP assay). The method, then: Measurement of Cyclic AMP Levels in CHO Cells Transfected with Human A2B Adenosine Receptors
CHO cells transfected with human A2B adenosine receptors are washed with phosphate-buffered saline, diluted trypsine and centrifuged for 10 min at 200 g. The pellet containing the CHO cells (1×10^6 cells/assay) is suspended in 0.5 mL of incubation mixture: NaCl 150 mM, KCl 2.7 mM, NaH2PO4 0.37 mM, MgSO4 1 mM, CaCl2 1 mM, Hepes 5 mM, MgCl2 10 mM, glucose 5 mM, pH 7.4 at 37° C. Then 2.0 IU/mL adenosine deaminase and 0.5 mM 4-(3-butoxy-4-methoxybenzyl)-2-imidazolidinone (Ro 20-1724) as phosphodiesterase inhibitor are added and preincubated for 10 min a shaking bath at 37° C. The potency of antagonists studied are determined by antagonism of NECA (100 nM)-induced stimulation of cyclic AMP levels. The reaction is terminated by the addition of cold 6% thrichloroacetic acid (TCA). The TCA suspension is centrifuged at 2000 g for 10 min at 4° C. and the supernatant is extracted four times with water saturated diethyl ether. The final aqueous solution is tested for cyclic AMP levels by a competition protein binding assay. Samples of cyclic AMP standard ([…]) are added to each test tube containing the incubation buffer (trizma base 0.1 M, aminophylline 8.0 mM, 2-mercaptoethanol 6.0 mM (pH 7.4) and [^3H]cyclic AMP in a total volume of 0.5 mL. The binding protein previously prepared from beef adrenals, is added to the samples previously incubated at 4° C. for 150 min, and after the addition of charcoal are centrifuged at 2000 g for 10 min. The clear supernatant is counted with 4 mL of Atomlight liquid scintillator and counted in a Tri Carb Packard 2500 TR scintillation counter.
(§1) The protein concentration is determined according to a Bio-Rad method (Bradford, Anal Biochem. 1976, 72: 248-254) with bovine albumin as a standard reference. Inhibitory binding constant, Ki, values are calculated from those of IC50 according to Cheng & Prusoff equation (Biochem. Pharmacol 1973, 22: 3099-3108): Ki=IC50/(1+[C*]/KD*) where [C*] is the concentration of the radioligand and KD* its dissociation constant. A weighted non linear least-squares curve fitting program LIGAND (Munson et al., Anal. Biochem 1980, 107: 220-239) is used for computer analysis of inhibition experiments Data are expressed as geometric mean with 95% confidence limits in parentheses. Examples of Animal Models
In general terms: Cyclic AMP is a second messenger, typically raised through Gs and lowered through Gi signalling.

The target in assay [2] is T1, human A2B adenosine receptors. In words: Displacement of [3H]MRE2029F20 binding at human A2B adenosine receptors. The note with it: [3H]MRE2029F20 displacement, human A2B receptors (footnote: HEK293 cells; method: CHO cells), n = 3-6; geometric mean (95% confidence limits); read-out: Ki hA2B. The method, then:
[…] (Naunyn-Schmied. Arch Pharm. 1998, 357: 1-9). Briefly, the cells are grown adherently and maintained in Dulbecco's Modified Eagles Medium with nutrient mixture F12 (DMEM/F12) without nucleosides, containing 10% fetal calf serum, penicillin (100 U/mL), streptomycin (100 μg/mL), L-glutamine (2 mM) and Geneticin (G418, 0.2 mg/ml) at 37° C. in 5% CO2/95% air. For membrane preparation the culture medium is removed and the cells are washed with phosphate-buffered saline and scraped off T75 flasks in ice-cold hypo tonic buffer (5 mM Tris HCl, 1 mM EDTA, pH 7.4). The cell suspension is homogenized with Polytron, the homogenate is spun for 10 min at 1000×g and the supernatant is then centrifuged for 30 min at 100,000×g. The membrane pellet is suspended in 50 mM Tris HCl buffer (pH 7.4) for A1 adenosine receptors, in 50 mM Tris HCl, 10 mM MgCl2 (pH 7.4) for A2A adenosine receptors, in 50 mM Tris HCl, 10 mM MgCl2, 1 mM EDTA (pH 7.4) for A2B and A3 adenosine receptors.
All new synthesized compounds have been tested to evaluate their affinity to human A1, A2A, A2B and A3 adenosine receptors. […] Pharmacol., 2000, 57: 968-975). Non-specific binding is determined in the presence of 10 μM of CHA and this is always ≦10% of the total binding. […] recombinant A2A adenosine receptors is performed using a suspension of membranes (50 μg of protein/assay) and at least 6-8 different concentrations of studied antagonists for an incubation time of 60 min at 4° C. Non-specific binding is determined in the presence of 1 μM ZM 241385 and is about 20% of total binding. […] Non-specific binding is defined as binding in the presence of 1 μM MRE 3029F20 and is about 25% of total binding. […] Non-specific binding is defined as binding in the presence of 1 μM MRE 3008F20 and is about 25% of total binding. Bound and free radioactivity are separated by filtering the assay mixture through Whatman GF/B glass fiber filters using a Micro-Mate 196 cell harvester (Packard Instrument Co.). The filter bound radioactivity is counted on a Top Count (efficiency 57%) with Micro-Scint 20.
as §1

SMILES strings stand for the structures.

One may read the IC50 as the concentration needed to halve the response being measured. Broadly, the Ki is the dissociation constant of the complex between target and ligand, obtained from inhibition or displacement.

In the case of `CCCn1c(=O)c2[nH]c(-c3cc(C)n(CC(=O)Nc4ccccc4)n3)nc2n(CCC)c1=O` [Example 1, 2-[3-(2,6-Dioxo-1,3-dipropyl-2,3,6,7-tetrahydro-1H-purin-8-yl)-5-methyl-pyrazol-1-yl]-N-phenyl-acetamide], the IC50 in assay [1] was 0.058 µM. In addition, the inhibition constant Ki in assay [2] turned out to be 0.015 µM.

With `CCCn1c(=O)c2[nH]c(-c3cc(C)n(CC(=O)Nc4ccc(I)cc4)n3)nc2n(CCC)c1=O` [Example 2, 2-[3-(2,6-Dioxo-1,3-dipropyl-2,3,6,7-tetrahydro-1H-purin-8-yl)-5-methyl-pyrazol-1-yl]-N-(4-iodophenyl)-acetamide], the 50% inhibitory concentration (IC50) in assay [1] worked out at 0.115 µM. Further, the Ki in assay [2] was 0.028 µM.

For the compound `CCCn1c(=O)c2[nH]c(-c3cc(C)n(CC(=O)Nc4ccc(F)cc4)n3)nc2n(CCC)c1=O` [Example 5, 2-[3-(2,6-Dioxo-1,3-dipropyl-2,3,6,7-tetrahydro-1H-purin-8-yl)-5-methyl-pyrazol-1-yl]-N-(4-fluoro-phenyl)-acetamide], the IC50 in assay [1] was 0.068 µM. In addition, the Ki in assay [2] turned out to be 0.014 µM.

Consider `CCCn1c(=O)c2[nH]c(-c3cc(C)n(CC(=O)Nc4ccc(OC)cc4)n3)nc2n(CCC)c1=O` [Example 6, 2-[3-(2,6-Dioxo-1,3-dipropyl-2,3,6,7-tetrahydro-1H-purin-8-yl)-5-methyl-pyrazol-1-yl]-N-(4-methoxyphenyl)-acetamide], for which the IC50 in assay [1] came to 0.061 µM. The Ki in assay [2] amounted to 0.012 µM.

Regarding `CCCn1c(=O)c2[nH]c(-c3cc(C)n(CC(=O)Nc4ccc(C)c(C)c4)n3)nc2n(CCC)c1=O` [Example 7, 2-[3-(2,6-Dioxo-1,3-dipropyl-2,3,6,7-tetrahydro-1H-purin-8-yl)-5-methyl-pyrazol-1-yl]-N-(3,4-dimethylphenyl)-acetamide], in assay [1], the concentration for half-maximal inhibition (IC50) turned out to be 0.2 µM. Also, the Ki in assay [2] is 0.048 µM.

On to `CCCn1c(=O)c2[nH]c(-c3cc(C)n(CC(=O)Nc4ccc(OC)c(OC)c4)n3)nc2n(CCC)c1=O` [Example 8, 2-[3-(2,6-Dioxo-1,3-dipropyl-2,3,6,7-tetrahydro-1H-purin-8-yl)-5-methyl-pyrazol-1-yl]-N-(3,4-dimethoxyphenyl)-acetamide], for which, in assay [1], the IC50 stood at 0.222 µM. Besides, the Ki in assay [2] amounted to 0.06 µM.

As to `CCCn1c(=O)c2[nH]c(-c3ccn(CC(=O)Nc4ccc(Cl)cc4)n3)nc2n(CCC)c1=O` [Example 10, 2-[3-(2,6-Dioxo-1,3-dipropyl-2,3,6,7-tetrahydro-1H-purin-8-yl)-pyrazol-1-yl]-N-(4-chloro-phenyl)-acetamide], the IC50 in assay [1] came out at 0.08 µM. The inhibitory constant (Ki) in assay [2] came to 0.02 µM.

With `CCCn1c(=O)c2[nH]c(-c3cc(C)n(CC(=O)Nc4ccc(C(C)CC)cc4)n3)nc2n(CCC)c1=O` (stereo not shown) [Example 12, 2-[3-(2,6-Dioxo-1,3-dipropyl-2,3,6,7-tetrahydro-1H-purin-8-yl)-5-methyl-pyrazol-1-yl]-N-(4-sec-butylphenyl)-acetamide], the IC50 in assay [1] is more than 1 µM. Moreover, the inhibitory constant (Ki) in assay [2] is more than 1 µM.

Regarding `CCCn1c(=O)c2[nH]c(-c3cc(C)n(CC(=O)Nc4cccc(OC)c4)n3)nc2n(CCC)c1=O` [Example 14, 2-[3-(2,6-Dioxo-1,3-dipropyl-2,3,6,7-tetrahydro-1H-purin-8-yl)-5-methyl-pyrazol-1-yl]-N-(3-methoxylphenyl)-acetamide], the 50% inhibitory concentration (IC50) in assay [1] was 0.266 µM. In assay [2], the Ki worked out at 0.065 µM.

Turning to `CCCn1c(=O)c2[nH]c(-c3cc(C)n(CC(=O)Nc4cccc(Cl)c4)n3)nc2n(CCC)c1=O` [Example 15, 2-[3-(2,6-Dioxo-1,3-dipropyl-2,3,6,7-tetrahydro-1H-purin-8-yl)-5-methyl-pyrazol-1-yl]-N-(3-chlorophenyl)-acetamide], the IC50 in assay [1] is 0.106 µM. The Ki in assay [2] was 0.028 µM.

Take `CCCn1c(=O)c2[nH]c(-c3cc(C)n(CC(=O)Nc4ccc(Cl)c(Cl)c4)n3)nc2n(CCC)c1=O` [Example 16, 2-[3-(2,6-Dioxo-1,3-dipropyl-2,3,6,7-tetrahydro-1H-purin-8-yl)-5-methyl-pyrazol-1-yl]-N-(3,4-dichlorophenyl)-acetamide]: in assay [1], the IC50 amounted to 0.188 µM. In assay [2], the Ki was 0.04 µM.

As to `CCCn1c(=O)c2[nH]c(-c3cc(C)n(CC(=O)Nc4ccc(C)cc4)n3)nc2n(CCC)c1=O` [Example 17, 2-[3-(2,6-Dioxo-1,3-dipropyl-2,3,6,7-tetrahydro-1H-purin-8-yl)-5-methyl-pyrazol-1-yl]-N-p-tolyl-acetamide], the 50% inhibitory concentration (IC50) in assay [1] is 0.212 µM. Further, in assay [2], the Ki came out at 0.056 µM.

In the case of `CCCn1c(=O)c2[nH]c(-c3nn(CC(=O)Nc4ccc(Cl)cc4)c(C)c3Cl)nc2n(CCC)c1=O` [Example 18, 2-[4-Chloro-3-(2,6-dioxo-1,3-dipropyl-2,3,6,7-tetrahydro-1H-purin-8-yl)-5-methyl-pyrazol-1-yl]-N-(4-chlorophenyl)-acetamide], the IC50 in assay [1] is more than 1 µM. Also, the Ki in assay [2] turned out to be 0.222 µM.

With `CCCn1c(=O)c2[nH]c(-c3nn(CC(=O)Nc4ccc(Cl)cc4)c(C)c3Br)nc2n(CCC)c1=O` [Example 19, 2-[4-Bromo-3-(2,6-dioxo-1,3-dipropyl-2,3,6,7-tetrahydro-1H-purin-8-yl)-5-methyl-pyrazol-1-yl]-N-(4-chlorophenyl)-acetamide], the IC50 in assay [1] was more than 1 µM. In assay [2], the Ki was 0.25 µM.
